In paper PMC6905088 (Biochemical pharmacology, 2019):
Values joined by “and” are separate entries in the source; they are usually repeats but may differ in a detail not shown here. Identical values can stand only once. “Also recorded” adds a separate entry of the source. Like-named read-outs stand apart in the source and are kept apart here. Each block holds one molecule with its values, some of them ahead of it.

Columns and labels:
[1] = target: CYP2D6 (Homo sapiens, UniProt P10635); test: Recombinant isozyme kinetic assay; conditions: Pathway 1 Step 1, substrate terbinafine
[2] = ref Terbianfine Product Monograph, Canada, 1995; cited from earlier work
[3] = target: CYP2E1 (Homo sapiens, UniProt P05181); test: Recombinant isozyme kinetic experiments, CYP2E1; format: in vitro ADME
Chain of CYP2E1 (P05181 whole entry): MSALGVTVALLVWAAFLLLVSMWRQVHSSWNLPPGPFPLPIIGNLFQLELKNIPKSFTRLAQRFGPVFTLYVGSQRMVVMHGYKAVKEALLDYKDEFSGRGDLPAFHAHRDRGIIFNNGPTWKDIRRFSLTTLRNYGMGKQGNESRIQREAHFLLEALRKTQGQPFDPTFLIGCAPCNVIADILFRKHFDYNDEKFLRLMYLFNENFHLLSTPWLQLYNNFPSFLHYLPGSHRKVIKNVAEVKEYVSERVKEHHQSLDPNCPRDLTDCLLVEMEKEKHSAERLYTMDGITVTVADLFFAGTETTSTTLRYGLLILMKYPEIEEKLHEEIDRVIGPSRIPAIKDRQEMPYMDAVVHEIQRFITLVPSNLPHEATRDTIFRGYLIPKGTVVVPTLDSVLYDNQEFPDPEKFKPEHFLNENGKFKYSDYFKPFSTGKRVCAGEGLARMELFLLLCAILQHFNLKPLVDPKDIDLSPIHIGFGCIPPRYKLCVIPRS

[4] = ref Vago et al., 1994, Kovarik et al., 1995; cited from earlier work
[5] = system: CYP3A4; conditions: substrate terbinafine, ref Davis et al. (2019); cited from earlier work
[6] = target: T1, CYP2B6 (Homo sapiens, UniProt P20813); test: Recombinant isozyme kinetic assay
T1 sequence (P20813 1-491): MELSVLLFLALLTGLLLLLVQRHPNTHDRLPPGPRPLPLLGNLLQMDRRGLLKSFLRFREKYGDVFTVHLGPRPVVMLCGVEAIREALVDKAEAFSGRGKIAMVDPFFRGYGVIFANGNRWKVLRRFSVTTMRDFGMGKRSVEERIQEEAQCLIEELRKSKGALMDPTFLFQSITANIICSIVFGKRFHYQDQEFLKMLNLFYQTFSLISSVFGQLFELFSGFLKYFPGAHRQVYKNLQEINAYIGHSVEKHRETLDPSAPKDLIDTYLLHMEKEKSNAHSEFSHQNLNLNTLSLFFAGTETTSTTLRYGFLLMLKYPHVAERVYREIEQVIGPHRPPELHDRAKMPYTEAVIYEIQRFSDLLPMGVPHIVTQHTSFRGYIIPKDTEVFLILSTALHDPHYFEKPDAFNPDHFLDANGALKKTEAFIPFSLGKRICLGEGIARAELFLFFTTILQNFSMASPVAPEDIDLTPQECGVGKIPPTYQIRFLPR

[7] = target: CYP2C9 (Homo sapiens, UniProt P11712); test: Recombinant isozyme kinetic assay; conditions: CYP2C9; substrate terbinafine
[8] = target: T2, CYP2C8 (Homo sapiens, UniProt P10632); test: Recombinant isozyme kinetic assay; conditions: substrate terbinafine
T2 sequence (P10632 1-490): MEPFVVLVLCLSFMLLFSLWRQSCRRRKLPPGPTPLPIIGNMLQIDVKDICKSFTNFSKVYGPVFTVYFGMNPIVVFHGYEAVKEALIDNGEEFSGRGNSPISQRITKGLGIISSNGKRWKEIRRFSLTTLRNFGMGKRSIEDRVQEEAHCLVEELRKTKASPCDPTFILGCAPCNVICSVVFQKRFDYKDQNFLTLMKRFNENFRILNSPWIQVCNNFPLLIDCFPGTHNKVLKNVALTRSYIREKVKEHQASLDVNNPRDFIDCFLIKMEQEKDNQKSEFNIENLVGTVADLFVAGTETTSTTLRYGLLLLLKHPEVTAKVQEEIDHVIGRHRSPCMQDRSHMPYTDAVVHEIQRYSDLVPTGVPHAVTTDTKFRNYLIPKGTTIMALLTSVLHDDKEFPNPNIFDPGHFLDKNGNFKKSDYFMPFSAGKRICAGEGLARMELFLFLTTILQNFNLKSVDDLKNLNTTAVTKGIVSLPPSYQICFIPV

[9] = system: CYP2C19; conditions: substrate terbinafine, ref Davis et al. (2019); cited from earlier work
[10] = target: T3, CYP2A6 (Homo sapiens, UniProt P11509); test: Recombinant isozyme kinetic assay; format: in vitro ADME
T3 sequence (P11509 1-494): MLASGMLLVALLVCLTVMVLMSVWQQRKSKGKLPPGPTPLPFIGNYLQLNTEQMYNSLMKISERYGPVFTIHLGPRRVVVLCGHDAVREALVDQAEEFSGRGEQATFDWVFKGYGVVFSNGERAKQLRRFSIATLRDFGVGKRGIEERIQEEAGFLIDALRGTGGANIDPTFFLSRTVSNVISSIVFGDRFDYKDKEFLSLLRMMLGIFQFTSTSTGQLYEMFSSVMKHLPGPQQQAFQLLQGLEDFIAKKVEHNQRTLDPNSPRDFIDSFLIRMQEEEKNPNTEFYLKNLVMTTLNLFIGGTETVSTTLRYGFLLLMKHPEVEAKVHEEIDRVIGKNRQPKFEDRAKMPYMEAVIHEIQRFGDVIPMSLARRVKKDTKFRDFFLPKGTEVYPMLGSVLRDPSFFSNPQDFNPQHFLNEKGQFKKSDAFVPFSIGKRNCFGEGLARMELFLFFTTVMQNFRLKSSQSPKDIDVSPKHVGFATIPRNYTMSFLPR

[11] = system: CYP2C9 and 3A4; test: In vitro to in vivo scaling of P450 kinetics, CYP2C9 and 3A4 combined; conditions: scaled to average protein concentrations in human liver microsomes
[12] = substrate: CN(C/C=C/C#CC(C)(C)C)Cc1cccc2ccccc12; test: cells, lysate or membranes named; conditions: substrate terbinafine, pH 7.4, 37.0 °C
[13] = substrate: CN(C/C=C/C#CC(C)(C)C)Cc1cccc2ccccc12
[14] = other: CYP2C8, Pathway 2 Step 2.1
[15] = other: CYP1A2, Pathway 1 Step 1
[16] = other: CYP1A2, Pathway 2 Step 2.1
[17] = other: CYP2C9, Pathway 2 Step 2.1

TBF-A formation (steady-state kinetic constants) [1]: undetected
role in terbinafine metabolism [3]: no role
TBF-A formation (steady-state kinetic constants) ([6]; Pathway 1 Step 1, substrate terbinafine): undetected
Km at 30 min ([6]; human, recombinant CYP2B6 Supersomes, pH 7.4, Km or S50, hydroxyterbinafine formation, substrate terbinafine): 300 ± 100 µM
hydroxyterbinafine formation (kinetic constants) [7]: undetected
hydroxyterbinafine formation (kinetic constants) [8]: undetected
terbinafine dihydrodiol formation (kinetic constants) [8]: undetected
combined contribution of CYP2C9 and 3A4 to every metabolic step [11]: over 60%
Molecule: CN(C/C=C/C#CC(C)(C)C)Cc1cccc2ccccc12 [terbinafine]
risk of idiosyncratic liver toxicity, one in N patients [2]: 45,000–54,000
reported plasma terbinafine and metabolite levels [4]: ≤ 3 µM
Hill slope (n), hydroxyterbinafine formation [5]: 1.30 ± 0.16
Hill slope (n), terbinafine dihydrodiol formation [5]: 2.0 ± 0.32
Hill slope (n), hydroxyterbinafine formation [9]: 1.40 ± 0.11
Hill slope (n), terbinafine dihydrodiol formation [9]: 0.58 ± 0.08
metabolite formation / role in terbinafine metabolism [10]: not able to generate metabolites; also recorded: no role

B1: CYP2C8 (Homo sapiens) (protein)
chain: T2 sequence (P10632 1-490)
Km [12, 14]: 72 ± 12 µM
kcat [12, 14]: 260 ± 12 pmol/min/nmol protein

B2: CYP1A2 (Homo sapiens) (protein)
chain: MALSQSVPFSATELLLASAIFCLVFWVLKGLRPRVPKGLKSPPEPWGWPLLGHVLTLGKNPHLALSRMSQRYGDVLQIRIGSTPVLVLSRLDTIRQALVRQGDDFKGRPDLYTSTLITDGQSLTFSTDSGPVWAARRRLAQNALNTFSIASDPASSSSCYLEEHVSKEAKALISRLQELMAGPGHFDPYNQVVVSVANVIGAMCFGQHFPESSDEMLSLVKNTHEFVETASSGNPLDFFPILRYLPNPALQRFKAFNQRFLWFLQKTVQEHYQDFDKNSVRDITGALFKHSKKGPRASGNLIPQEKIVNLVNDIFGAGFDTVTTAISWSLMYLVTKPEIQRKIQKELDTVIGRERRPRLSDRPQLPYLEAFILETFRHSSFLPFTIPHSTTRDTTLNGFYIPKKCCVFVNQWQVNHDPELWEDPSEFRPERFLTADGTAINKPLSEKMMLFGMGKRRCIGEVLAKWEIFLFLAILLQQLEFSVPPGVKVDLTPIYGLTMKHARCEHVQARLRFSIN
Km [12, 15]: 75 ± 42 µM and 31 ± 17 µM
kcat [12, 15]: 100 ± 12 pmol/min/nmol protein
Km [12, 16]: 120 ± 23 µM
kcat [12, 16]: 530 ± 38 pmol/min/nmol protein
K0.5 ([12]; other: CYP1A2, Hill equation): 130 ± 87 µM
K0.5 ([12]; other: CYP1A2): 45 ± 5.7 µM

B3: CYP2D6 (Homo sapiens) (protein)
chain: MGLEALVPLAVIVAIFLLLVDLMHRRQRWAARYPPGPLPLPGLGNLLHVDFQNTPYCFDQLRRRFGDVFSLQLAWTPVVVLNGLAAVREALVTHGEDTADRPPVPITQILGFGPRSQGVFLARYGPAWREQRRFSVSTLRNLGLGKKSLEQWVTEEAACLCAAFANHSGRPFRPNGLLDKAVSNVIASLTCGRRFEYDDPRFLRLLDLAQEGLKEESGFLREVLNAVPVLLHIPALAGKVLRFQKAFLTQLDELLTEHRMTWDPAQPPRDLTEAFLAEMEKAKGNPESSFNDENLRIVVADLFSAGMVTTSTTLAWGLLLMILHPDVQRRVQQEIDDVIGQVRRPEMGDQAHMPYTTAVIHEVQRFGDIVPLGVTHMTSRDIEVQGFRIPKGTTLITNLSSVLKDEAVWEKPFRFHPEHFLDAQGHFVKPEAFLPFSAGRRACLGEPLARMELFLFFTSLLQHFSFSVPTGQPRPSHHGVFAFLVSPSPYELCAVPR
K0.5 [13]: 16 ± 3.2 µM and 25 ± 4.1 µM

B4: CYP2C9 (Homo sapiens) (protein)
chain: MDSLVVLVLCLSCLLLLSLWRQSSGRGKLPPGPTPLPVIGNILQIGIKDISKSLTNLSKVYGPVFTLYFGLKPIVVLHGYEAVKEALIDLGEEFSGRGIFPLAERANRGFGIVFSNGKKWKEIRRFSLMTLRNFGMGKRSIEDRVQEEARCLVEELRKTKASPCDPTFILGCAPCNVICSIIFHKRFDYKDQQFLNLMEKLNENIKILSSPWIQICNNFSPIIDYFPGTHNKLLKNVAFMKSYILEKVKEHQESMDMNNPQDFIDCFLMKMEKEKHNQPSEFTIESLENTAVDLFGAGTETTSTTLRYALLLLLKHPEVTAKVQEEIERVIGRNRSPCMQDRSHMPYTDAVVHEVQRYIDLLPTSLPHAVTCDIKFRNYLIPKGTTILISLTSVLHDNKEFPNPEMFDPHHFLDEGGNFKKSKYFMPFSAGKRICVGEALAGMELFLFLTSILQNFNLKSLVDPKNLDTTPVVNGFASVPPFYQLCFIPV
kcat ([12]; other: CYP2C9, Pathway 1 Step 1): 800 ± 170 pmol/min/nmol protein
Km [12, 17]: 20 ± 5.1 µM
kcat [12, 17]: 400 ± 19 pmol/min/nmol protein
K0.5 ([12]; other: CYP2C9, Hill equation): 72 ± 92 µM
